Data reported in US20220056037A1 (SPV THERAPEUTICS INC., priority 2018, published 2022).
Like-named read-outs stand apart in the source and are kept apart here.

What was measured:
[1] = molecular target: T1, CDK4-CYCLIND1 (Homo sapiens, UniProt P11802); experiment: Inhibition assay, microfluidic LabChip (Nanosyn); assay type: biochemical; conditions: Table 2; ATP 200 μM; read-out: CDK4 IC50
T1 construct: purchased Invitrogen
Procedure: (§1) The reaction was terminated by the addition of EDTA. The plates were analyzed using a Caliper LabChip 3000.
(§2) Additional inhibition assays were performed as described above.

[2] = molecular target: T2, CDK6-CYCLIND3 (Homo sapiens, UniProt Q00534); experiment: Inhibition assay, microfluidic LabChip (Nanosyn); assay type: biochemical; conditions: ATP 300 μM
T2 construct: purchased Carna
Procedure: as §1, §2

T2 sequence (Q00534 whole entry): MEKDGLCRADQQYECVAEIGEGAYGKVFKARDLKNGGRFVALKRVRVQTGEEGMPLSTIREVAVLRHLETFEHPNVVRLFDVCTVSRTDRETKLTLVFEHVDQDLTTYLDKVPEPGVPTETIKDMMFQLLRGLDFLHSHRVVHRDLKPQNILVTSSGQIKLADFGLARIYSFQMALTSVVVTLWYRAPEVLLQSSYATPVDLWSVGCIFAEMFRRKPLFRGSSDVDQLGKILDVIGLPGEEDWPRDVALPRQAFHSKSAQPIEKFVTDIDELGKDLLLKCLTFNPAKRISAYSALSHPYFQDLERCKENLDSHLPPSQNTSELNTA
T2 sequence (P30281 whole entry partner): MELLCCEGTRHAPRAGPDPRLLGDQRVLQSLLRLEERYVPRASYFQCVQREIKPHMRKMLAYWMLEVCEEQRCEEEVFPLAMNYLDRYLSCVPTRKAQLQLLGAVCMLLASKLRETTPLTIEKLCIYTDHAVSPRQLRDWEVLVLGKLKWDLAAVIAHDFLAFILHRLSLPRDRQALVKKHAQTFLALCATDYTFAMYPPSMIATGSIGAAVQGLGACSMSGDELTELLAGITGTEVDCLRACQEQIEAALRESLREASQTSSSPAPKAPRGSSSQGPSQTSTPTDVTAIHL
T1 sequence (P11802 whole entry): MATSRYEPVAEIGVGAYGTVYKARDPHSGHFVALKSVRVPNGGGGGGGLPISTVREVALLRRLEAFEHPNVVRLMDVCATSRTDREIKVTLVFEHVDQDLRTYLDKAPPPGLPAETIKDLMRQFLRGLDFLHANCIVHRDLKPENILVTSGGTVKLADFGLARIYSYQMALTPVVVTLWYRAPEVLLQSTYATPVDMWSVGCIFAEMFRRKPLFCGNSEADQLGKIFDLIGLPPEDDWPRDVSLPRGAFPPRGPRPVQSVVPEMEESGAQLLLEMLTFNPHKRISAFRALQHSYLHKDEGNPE
T1 sequence (P24385 whole entry partner): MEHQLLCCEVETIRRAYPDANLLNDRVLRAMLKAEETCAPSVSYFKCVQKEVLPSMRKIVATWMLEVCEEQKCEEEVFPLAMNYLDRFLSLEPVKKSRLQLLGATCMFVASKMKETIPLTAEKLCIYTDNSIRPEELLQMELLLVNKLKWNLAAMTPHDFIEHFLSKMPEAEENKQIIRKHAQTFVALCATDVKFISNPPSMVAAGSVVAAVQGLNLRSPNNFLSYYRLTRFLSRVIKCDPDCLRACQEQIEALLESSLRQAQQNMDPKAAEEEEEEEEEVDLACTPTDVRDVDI

| Compound | IC50 [1] | IC50 ([2]; Table 2, read-out: CDK6 IC50) | IC50 ([2]; CDK6 IC50, Table 2) |
| --- | --- | --- | --- |
| CN1CCN(c2cnc(Nc3ncc4c(F)c(C(=O)N(C)C)n(C5CCCC5)c4n3)cc2C(F)(F)F)CC1 [Compound A18, 7-cyclopentyl-5-fluoro-N,N-dimethyl-2-((5-(4-methylpiperazin-1-yl)-4-(trifluoromethyl)pyridin-2-yl)amino)-7H-pyrrolo[2,3-d]pyrimidine-6-carboxamide] | 2740 nM | 12600 nM |  |
| CN(C)C(=O)c1c(F)c2cnc(Nc3ccc(C4=CCNCC4)cn3)nc2n1C1CCCC1 [Compound A22, 7-cyclopentyl-5-fluoro-N,N-dimethyl-2-((1′,2′,3′,6′-tetrahydro-[3,4′-bipyridin]-6-yl)amino)-7H-pyrrolo[2,3-d]pyrimidine-6-carboxamide] | 41.7 nM | 82 nM |  |
| CC(C)N1CCN(c2ccc(Nc3ncc4cc(C(=O)N(C)C)n(C5CCCC5)c4n3)cc2F)CC1 [Compound A11, 7-cyclopentyl-2-((3-fluoro-4-(4-isopropylpiperazin-1-yl)phenyl)amino)-N,N-dimethyl-7H-pyrrolo[2,3-d]pyrimidine-6-carboxamide] | 3.88 nM | 12 nM |  |
| CN(C)C(=O)c1cc2cnc(Nc3ccc(OCCN4CCCC4)cn3)nc2n1C1CCCC1 [Compound A5, 7-cyclopentyl-N,N-dimethyl-2-((5-(2-(pyrrolidin-1-yl)ethoxy)pyridin-2-yl)amino)-7H-pyrrolo[2,3-d]pyrimidine-6-carboxamide] | 19.3 nM | 50.6 nM |  |
| CN(C)C(=O)c1cc2cnc(Nc3ccc(N4CCNCC4)cn3)nc2n1C12CC(C1)C2 [Compound A12, 7-(bicyclo[1.1.1]pentan-1-yl)-N,N-dimethyl-2-((5-(piperazin-1-yl)pyridin-2-yl)amino)-7H-pyrrolo[2,3-d]pyrimidine-6-carboxamide] | 12.4 nM | 10 nM |  |
| CN(C)C(=O)c1cc2cnc(Nc3cc(C(F)(F)F)c(N4CCNCC4)cn3)nc2n1C1CCCC1 [Compound A24, 7-cyclopentyl-N,N-dimethyl-2-((5-(piperazin-1-yl)-4-(trifluoromethyl)pyridin-2-yl)amino)-7H-pyrrolo[2,3-d]pyrimidine-6-carboxamide] | 457 nM | 1430 nM |  |
| CN(C)C(=O)c1c(F)c2cnc(Nc3ccc(N4CCN5CCC4CC5)cn3)nc2n1C1CCCC1 [Compound A10, 2-((5-(1,4-diazabicyclo[3.2.2]nonan-4-yl)pyridin-2-yl)amino)-7-cyclopentyl-5-fluoro-N,N-dimethyl-7H-pyrrolo[2,3-d]pyrimidine-6-carboxamide] | 30.4 nM | 50 nM |  |
| CC(C)N1CC=C(c2ccc(Nc3ncc4c(F)c(C(=O)N(C)C)n(C5CCCC5)c4n3)nc2)CC1 [Compound A21, 7-cyclopentyl-5-fluoro-2-((1′-isopropyl-1′,2′,3′,6′-tetrahydro-[3,4′-bipyridin]-6-yl)amino)-N,N-dimethyl-7H-pyrrolo[2,3-d]pyrimidine-6-carboxamide] | 51.2 nM | 98.6 nM |  |
| CN1CCN(c2ccc(Nc3ncc4cc(C(=O)N(C)C)n(C56CC(C5)C6)c4n3)cc2)CC1 [Compound A14, 7-(bicyclo[1.1.1]pentan-1-yl)-N,N-dimethyl-2-((4-(4-methylpiperazin-1-yl)phenyl)amino)-7H-pyrrolo[2,3-d]pyrimidine-6-carboxamide] |  |  | 7.08 nM |
| CN1CCN(c2ccc(Nc3ncc4c(F)c(C(=O)N(C)C)n(C5CCCC5)c4n3)cc2)CC1 [Compound A19, 7-cyclopentyl-5-fluoro-N,N-dimethyl-2-((4-(4-methylpiperazin-1-yl)phenyl)amino)-7H-pyrrolo[2,3-d]pyrimidine-6-carboxamide] | 15.4 nM | 45.3 nM |  |
| CN(C)C(=O)c1cc2cnc(Nc3ccc(N4CCNCC4)cc3)nc2n1C12CC(C1)C2 [Compound A16, 7-(bicyclo[1.1.1]pentan-1-yl)-N,N-dimethyl-2-((4-(piperazin-1-yl)phenyl)amino)-7H-pyrrolo[2,3-d]pyrimidine-6-carboxamide] | 2.94 nM | 7.68 nM |  |
| CN1CCN(c2ccc(Nc3ncc4c(F)c(C(=O)N(C)C)n(C5CCCC5)c4n3)nc2)CC1 [Compound A2] | 37.9 nM | 54.3 nM |  |
| CN(C)C(=O)c1c(F)c2cnc(Nc3ccc(N4CCOCC4)c(F)c3)nc2n1C1CCCC1 [Compound A20, 7-cyclopentyl-5-fluoro-2-((3-fluoro-4-morpholinophenyl)amino)-N,N-dimethyl-7H-pyrrolo[2,3-d]pyrimidine-6-carboxamide] | 33 nM | 74.6 nM |  |

The next lines start with results.

| IC50 [1] | IC50 ([2]; Table 2, read-out: CDK6 IC50) | Compound | IC50 ([2]; CDK6 IC50, Table 2) |
| --- | --- | --- | --- |
| 39.3 nM | 119 nM | CN(C)C(=O)c1c(F)c2cnc(Nc3ccc(OCCN4CCCC4)nc3)nc2n1C1CCCC1 [Compound A26, 7-cyclopentyl-5-fluoro-N,N-dimethyl-2-((6-(2-(pyrrolidin-1-yl)ethoxy)pyridin-3-yl)amino)-7H-pyrrolo[2,3-d]pyrimidine-6-carboxamide] |  |
| 15.4 nM | 23.5 nM | CN1CCN(c2ccc(Nc3ncc4cc(C(=O)N(C)C)n(C56CC(C5)C6)c4n3)nc2)CC1 [Compound A38, 7-(bicyclo[1.1.1]pentan-1-yl)-N,N-dimethyl-2-((5-(4-methylpiperazin-1-yl)pyridin-2-yl)amino)-7H-pyrrolo[2,3-d]pyrimidine-6-carboxamide] |  |
| 26.6 nM | 81.9 nM | CN1CCN(c2ccc(Nc3ncc4c(F)c(C(=O)N(C)C)n(C5CCCC5)c4n3)cn2)CC1 [Compound A28, 7-cyclopentyl-5-fluoro-N,N-dimethyl-2-((6-(4-methylpiperazin-1-yl)pyridin-3-yl)amino)-7H-pyrrolo[2,3-d]pyrimidine-6-carboxamide] |  |
| 5.16 nM | 17.3 nM | CN1CCN(c2ccc(Nc3ncc4cc(C(=O)N(C)C)n(C56CC(C5)C6)c4n3)cc2F)CC1 [Compound A40, 7-(bicyclo[1.1.1]pentan-1-yl)-2-((3-fluoro-4-(4-methylpiperazin-1-yl)phenyl)amino)-N,N-dimethyl-7H-pyrrolo[2,3-d]pyrimidine-6-carboxamide] |  |
| 39.6 nM | 116 nM | CN(C)C(=O)c1c(F)c2cnc(Nc3ccc(OCCN4CCCCC4)nc3)nc2n1C1CCCC1 [Compound A27, 7-cyclopentyl-5-fluoro-N,N-dimethyl-2-((6-(2-(piperidin-1-yl)ethoxy)pyridin-3-yl)amino)-7H-pyrrolo[2,3-d]pyrimidine-6-carboxamide] |  |
| 21.4 nM | 40.2 nM | CCN1CCN(Cc2ccc(Nc3ncc4cc(C(=O)N(C)C)n(C56CC(C5)C6)c4n3)nc2)CC1 [Compound A41, 7-(bicyclo[1.1.1]pentan-1-yl)-2-((5-((4-ethylpiperazin-1-yl)methyl)pyridin-2-yl)amino)-N,N-dimethyl-7H-pyrrolo[2,3-d]pyrimidine-6-carboxamide] |  |
| 43.8 nM | 217 nM | COc1cc(Nc2ncc3c(F)c(C(=O)N(C)C)n(C4CCCC4)c3n2)ccc1N1CCN(C(C)C)CC1 [Compound A35, 7-cyclopentyl-5-fluoro-2-((4-(4-isopropylpiperazin-1-yl)-3-methoxyphenyl)amino)-N,N-dimethyl-7H-pyrrolo[2,3-d]pyrimidine-6-carboxamide] |  |
| 2.45 nM | 10.1 nM | CN(C)C(=O)c1cc2cnc(Nc3ccc(C(=O)N4CC[C@H](N(C)C)C4)cc3)nc2n1C12CC(C1)C2 [Compound A44, (S)-7-(bicyclo[1.1.1]pentan-1-yl)-2-((4-(3-(dimethylamino)pyrrolidine-1-carbonyl)phenyl)amino)-N,N-dimethyl-7H-pyrrolo[2,3-d]pyrimidine-6-carboxamide] |  |
| 10.7 nM | 31.7 nM | CN1CCN(c2ccc(Nc3ncc4cc(C(=O)N(C)C)n(C56CC(C5)C6)c4n3)cc2F)CC1 [Compound A30, 7-(bicyclo[1.1.1]pentan-1-yl)-2-((3-fluoro-4-(4-methylpiperazin-1-yl)phenyl)amino)-N,N-dimethyl-7H-pyrrolo[2,3-d]pyrimidine-6-carboxamide] |  |
| 2290 nM | 4860 nM | CN(C)C(=O)c1c(F)c2cnc(Nc3cc(C(F)(F)F)c(N4CCNCC4)cn3)nc2n1C1CCCC1 [Compound A25, 7-cyclopentyl-5-fluoro-N,N-dimethyl-2-((5-(piperazin-1-yl)-4-(trifluoromethyl)pyridin-2-yl)amino)-7H-pyrrolo[2,3-d]pyrimidine-6-carboxamide] |  |
| 35.6 nM | 32.9 nM | CC(C)N1CC=C(c2ccc(Nc3ncc4cc(C(=O)N(C)C)n(C56CC(C5)C6)c4n3)nc2)CC1 [Compound A43, 7-(bicyclo[1.1.1]pentan-1-yl)-2-((1′-isopropyl-1′,2′,3′,6′-tetrahydro-[3,4′-bipyridin]-6-yl)amino)-N,N-dimethyl-7H-pyrrolo[2,3-d]pyrimidine-6-carboxamide] |  |
| 8.17 nM | 32.5 nM | CC(C)N1CCN(c2ccc(Nc3ncc4c(F)c(C(=O)N(C)C)n(C5CCCC5)c4n3)cc2)CC1 [Compound A36, 7-cyclopentyl-5-fluoro-2-((4-(4-isopropylpiperazin-1-yl)phenyl)amino)-N,N-dimethyl-7H-pyrrolo[2,3-d]pyrimidine-6-carboxamide] |  |
| > 30000 nM | > 30000 nM | CN(C)C(=O)c1c(F)c2cnc(N3CCN(c4ccc(C#N)cc4)CC3)nc2n1C1CCCC1 [Compound A29, 2-(4-(4-cyanophenyl)piperazin-1-yl)-7-cyclopentyl-5-fluoro-N,N-dimethyl-7H-pyrrolo[2,3-d]pyrimidine-6-carboxamide] |  |
| 29.3 nM | 73.3 nM | CN(C)C(=O)c1cc2cnc(Nc3ccc(N4CCC(N5CCOCC5)CC4)cc3)nc2n1C12CC(C1)C2 [Compound A45, 7-(bicyclo[1.1.1]pentan-1-yl)-N,N-dimethyl-2-((4-(4-morpholinopiperidin-1-yl)phenyl)amino)-7H-pyrrolo[2,3-d]pyrimidine-6-carboxamide] |  |
| 52000 nM |  | CC(C)N1CCN(c2ccc(Nc3ncc4cc(C(=O)N(C)C)n(C56CC(C5)C6)c4n3)cc2)CC1 [Compound A37, 7-(bicyclo[1.1.1]pentan-1-yl)-2-((4-(4-isopropylpiperazin-1-yl)phenyl)amino)-N,N-dimethyl-7H-pyrrolo[2,3-d]pyrimidine-6-carboxamide] |  |
